What was measured:
Cabernet Franc grapes [1] = assay: Example 2: dipping Cabernet Franc flower clusters at full bloom, berry number and cluster compactness; assay type: in vivo, grape; details: clusters dipped at full bloom; 300 ppm ABA, 10 ppm GA3 or 300 ppm ABA mixed with 10 ppm GA3; n = 10 clusters
Experimental: One cluster was tagged and treated with each of the treatments on each of 10 vines. The clusters were harvested at commercial maturity and berry number and cluster compactness were evaluated.

Cabernet Franc grapes [2] = assay: Example 1: dipping Cabernet Franc flower clusters at full bloom, berry number and cluster compactness; assay type: in vivo, grape; details: clusters dipped at full bloom; 10 ppm GA3, 300 ppm ABA or both together; harvested at commercial maturity; n = 10 clusters
Experimental: One cluster was tagged and treated with each of the treatments on each of 10 vines. The clusters were harvested at commercial maturity. Cluster compactness was assessed by counting the number of berries per cluster and measuring the total rachis length of each cluster and then calculating the number of berries per cm of rachis.

Thompson Seedless grape = assay: Example 3: spraying Thompson Seedless grape vines, bunch compactness at harvest; assay type: in vivo; details: sprayed twice, at 70% bloom and 100% bloom
Experimental: The applications were made twice, once at 70% bloom and once at 100% bloom. Grape bunch compactness was rated at harvest and the average bunch mass and the average number of berries per gram of rachis was determined.

[3] = test system: Pioneer McIntosh apple trees; assay: Example 4: fruit set of Pioneer McIntosh apple trees after BA and ABA sprays; assay type: in vivo; details: 75 ppm BA whole-tree spray, 300 ppm ABA on tagged limbs, or sequential BA then ABA, applied at 9 mm fruit size; for % Fruit Set: counted after June drop
Experimental: Pioneer McIntosh apple trees were selected for uniformity of bloom and 2 limbs per tree were tagged and all blossom clusters on the tagged limbs were counted. Treatments were applied to four replicate trees per treatment when the average fruit size was 9 mm. BA at 75 ppm was applied as a dilute solution sprayed on whole trees to the drip point on two of the four trees in each replication. […] The solution was shaken and then allowed to sit for 5 minutes. […] The fourth tree in each block received no spray and served as the control. At the end of the June drop period in July, all fruit on the tagged limbs was counted and recorded.

Empire apple trees = assay: Example 5: crop load and fruit size of Empire apple trees; assay type: in vivo; details: 100 ppm BA or mixture of 100 ppm BA and 1000 ppm ABA; sprayed at 8 mm fruit size; harvested at maturity
Experimental: Empire apple trees were selected for tree size and uniformity of bloom. Treatments were applied to five replicate trees per treatment when the average fruit size was 8 mm. BA at 100 ppm was applied as a dilute solution sprayed on whole trees to the drip point on five trees. […] Five trees were left untreated to act as control trees. At the end the season when the fruit were mature all the fruit were harvested and the number of fruit per tree and the average fruit size were determined.

[4] = test system: European seedless cucumber (var. Flamingo) plants; assay: Example 6: foliar spray with ABA, abortion of cucumber fruits; assay type: in vivo; details: ABA 100 ppm sprayed to drip at 20 node growth stage
Experimental: European seedless cucumber (var. Flamingo) plants were grown in a greenhouse.

Compound	Number of berries per cluster (Cabernet Franc grapes [1])	Number of berries per cm rachis (Cabernet Franc grapes [1])	Number of berries per cluster (Cabernet Franc grapes [2])	Number of berries per cm rachis (Cabernet Franc grapes [2])	Bunch Compactness (Thompson Seedless grape; rating scale 1 = very loose bunch, 5 = very tight bunch, rated at harvest)	Average bunch mass (Thompson Seedless grape; at harvest) [g]	Average number of berries per gram of rachis (Thompson Seedless grape; at harvest)	Average Fruit Weight [3] [g]	% Fruit Set [3] [%]	Average Fruit Weight (Empire apple trees) [g]	Number of Fruit per Tree (Empire apple trees)	Rate of fruit abortion compared to the control plants [4]	Percentage of basal 18 cucumber fruits per plant that aborted ([4]; greenhouse, n = 5 replicate plants) [%]
gibberellic acid [GA3]	37.6	1.35	34.8	1.33	2.3	830	5.7						
c1ccc(CNc2ncnc3nc[nH]c23)cc1 [BA, benzyladenine]								190	75	123	137		
(S)-5-(1-hydroxy-2,6,6,-trimethyl-4-oxo-2-cyclohexen-1-yl)-3-methyl-(2Z,4E)-pentadienoic acid [ABA]	54.3	2.0	53.0	1.87				146	25			twice	68

From US8440592B2, “Use of abscisic acid combinations for thinning” (Valent BioSciences Corporation, priority 2007, dated 2013)
